The results in this text go back to patent publication US20230045421A1 (priority 2018, published 2023).

Broadly, the EC50 is the concentration needed to bring the measured effect to its halfway point.

The subject of this assay is HBV rcDNA. Nature of the assay: HepDE19 assay with bDNA quantitation of HBV rcDNA. The assay is classed as cell-based, hepatitis B virus. In outline: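 HepDE19 cells (HepG2-derived, Tet-regulated HBV replication) were deprived of tetracycline and then exposed to compounds for 7 days at 37 °C in 0.5% DMSO, 8-point titration from 25 μM. rcDNA was quantified by bDNA and EC50/EC90 came from 4-parameter fits. CC50 was measured by CellTiter-Glo ATP content on replicate plates after 4 days.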

Setting [1] is: Hepatitis B virus, HepDE19, HepDE19 assay, inhibition of formation of rcDNA; read-out: DE-19bDNA EC50.
Where [2] appears, read: Hepatitis B virus, HepDE19, HepDE19 assay, inhibition of formation of relaxed circular DNA (rcDNA), bDNA quantitation; read-out: DE-19bDNA EC50.
The mark [3] stands for this setting: read-out: DE-19bDNA EC50; HepDE19 assay, inhibition of formation of rcDNA.
The mark [4] stands for this setting: HepDE19 assay, inhibition of formation of rcDNA; read-out: DE-19bDNA EC50.
[5] abbreviates: HepDE19 assay, inhibition of formation of relaxed circular DNA (rcDNA), bDNA quantitation; read-out: DE-19bDNA EC50.

Structures are written as SMILES. Read-outs that look alike come from different tables or passages of the source.

Consider `CCCN(C(=O)Nc1ccc(F)c(C)c1)[C@H](C)c1c[nH]c(=O)c2ccccc12` [Compound 43, (R)-3-(4-Fluoro-3-methylphenyl)-1-(1-(1-oxo-1,2-dihydroisoquinolin-4-yl)ethyl)-1-propylurea], for which, under setting [1], the EC50 worked out at 10 nM.
In the case of `CC(C)CN(C(=O)Nc1ccc(F)cc1)C(C)c1cnc(-n2cncn2)c2ccccc12` (racemic) [Compound 301, 1-(1-(1-(1H-1,2,4-Triazol-1-yl)isoquinolin-4-yl)ethyl)-3-(4-fluorophenyl)-1-isobutylurea], the EC50 under setting [2] is 51 nM.
As for `CC(c1c[nH]c(=O)c2ccccc12)N(CC[C@H](C)O)C(=O)Nc1ccc(F)c(Cl)c1` (single isomer, unassigned) [Compound 214], the EC50 under setting [3] amounted to 47 nM.
In the case of `CC(c1c[nH]c(=O)c2cnccc12)N(C)C(=O)Nc1ccc(F)c(Cl)c1` (centres unmarked) [Compound 111, 3-(3-Chloro-4-fluorophenyl)-1-methyl-1-(1-(1-oxo-1,2-dihydro-2,7-naphthyridin-4-yl)ethyl)urea], the EC50 under setting [1] stood at 250 nM.
Take `CCN(C(=O)Nc1ccc(F)c(Cl)c1)C(c1ccccc1)c1cnc(OC)c2ccccc12` (single isomer, unassigned) [Compound 60, 3-(3-Chloro-4-fluorophenyl)-1-ethyl-1-((1-methoxyisoquinolin-4-yl)(phenyl)methyl)urea]: the EC50 under setting [4] was 8800 nM.
Still for that read-out and setting: the result for `CC(c1cnc(OCc2ncn(C)n2)c2ccccc12)N(CCCO)C(=O)Nc1ccc(F)c(Cl)c1` (single isomer, unassigned) [Compound 255, 3-(3-Chloro-4-fluorophenyl)-1-(3-hydroxypropyl)-1-(1-(1-((1-methyl-1H-1,2,4-triazol-3-yl)methoxy)isoquinolin-4-yl)ethyl)urea] reads 5100 nM.
With `CC(c1c[nH]c(=O)c2c(F)c(F)ccc12)N(C)C(=O)Nc1ccc2cc[nH]c2c1` (single isomer, unassigned) [Compound 499, 1-(1-(7,8-Difluoro-1-oxo-1,2-dihydroisoquinolin-4-yl)ethyl)-3-(1H-indol-6-yl)-1-methylurea], under setting [5], the EC50 is 300 nM.
In the case of `CC(c1cn(C(C)C)c(=O)c2ccccc12)N(C)C(=O)Nc1ccc(F)c(Cl)c1` (single isomer, unassigned) [Compound 187, 3-(3-Chloro-4-fluorophenyl)-1-(1-(2-isopropyl-1-oxo-1,2-dihydroisoquinolin-4-yl)ethyl)-1-methylurea], the EC50 under setting [4] is 140 nM.
Take `CC(C)CN(C(=O)Nc1ccc(F)c(Cl)c1)C(C)c1c[nH]c(=O)c2ccccc12` (single isomer, unassigned) [Compound 144, 3-(3-chloro-4-fluorophenyl)-1-isobutyl-1-(1-(1-oxo-1,2-dihydroisoquinolin-4-yl)ethyl)urea]: under setting [4], the EC50 came to 10 nM.
As for `CC(c1c[nH]c(=O)c2ccccc12)N(C(=O)Nc1ccc(F)c(Cl)c1)C1CC1` (single isomer, unassigned) [Compound 68, 3-(3-Chloro-4-fluorophenyl)-1-cyclopropyl-1-(1-(1-oxo-1,2-dihydroisoquinolin-4-yl)ethyl)urea], the EC50 under setting [4] came out at 60 nM.
`COc1ncc(C(CCO)NC(=O)Nc2ccc(F)c(Cl)c2)c2ccccc12` (single isomer, unassigned) [Compound 78, 1-(3-Chloro-4-fluorophenyl)-3-(3-hydroxy-1-(1-methoxyisoquinolin-4-yl)propyl)urea]: under setting [4], the EC50 came to 24000 nM.
In the case of `CC(c1c[nH]c(=O)c2ccccc12)N(CC1CC1)C(=O)Nc1ccc(F)c(Cl)c1` (single isomer, unassigned) [Compound 86, 3-(3-Chloro-4-fluorophenyl)-1-(cyclopropylmethyl)-1-(1-(1-oxo-1,2-dihydroisoquinolin-4-yl)ethyl)urea], the EC50 under setting [4] was 20 nM.
Turning to `CC(c1c[nH]c(=O)c2c(F)cc(F)cc12)N(CCCO)C(=O)Nc1ccc(F)c(Cl)c1` (single isomer, unassigned) [Compound 374, 3-(3-Chloro-4-fluorophenyl)-1-(1-(6,8-difluoro-1-oxo-1,2-dihydroisoquinolin-4-yl)ethyl)-1-(3-hydroxypropyl)urea], the EC50 under setting [2] is 6 nM.
On to `CC(c1c[nH]c(=O)c2ccccc12)N(CCS(N)(=O)=O)C(=O)Nc1ccc(F)c(Cl)c1` (single isomer, unassigned) [Compound 119, 2-(3-(3-Chloro-4-fluorophenyl)-1-(1-(1-oxo-1,2-dihydroisoquinolin-4-yl)ethyl)ureido) ethanesulfonamide], for which, under setting [4], the EC50 is 70 nM.
Regarding `CCN(C(=O)Nc1ccc(F)cc1)C(C)c1c[nH]c(=O)c2cc(F)c(F)cc12` (single isomer, unassigned) [Compound 402, 1-(1-(6,7-Difluoro-1-oxo-1,2-dihydroisoquinolin-4-yl)ethyl)-1-ethyl-3-(4-fluorophenyl)urea], the half-maximal effective concentration (EC50) under setting [5] was determined as 10000 nM.
As for `CC(c1c[nH]c(=O)c2cc(F)c(F)cc12)N(C)C(=O)Nc1cccc(Cl)c1` (single isomer, unassigned) [Compound 413, 1-(1-(6,7-Difluoro-1-oxo-1,2-dihydroisoquinolin-4-yl)ethyl)-3-(3-chlorophenyl)-1-methylurea], the EC50 (read-out: DE-19bDNA EC50; HepDE19 assay, inhibition of formation of relaxed circular DNA (rcDNA), bDNA quantitation) is 18 nM.
`CCCN(Cc1c[nH]c(=O)c2ccccc12)C(=O)Nc1ccc(F)c(Cl)c1` [Compound 28, 3-(3-Chloro-4-fluorophenyl)-1-((1-oxo-1,2-dihydroisoquinolin-4-yl)methyl)-1-propylurea]: under setting [1], the 50% effective concentration (EC50) turned out to be 60 nM.
On to `CC(c1cnc(CO)c2ccccc12)N(C)C(=O)Nc1ccc(F)c(Cl)c1` (single isomer, unassigned) [Compound 327, 3-(3-Chloro-4-fluorophenyl)-1-(1-(1-(hydroxymethyl)isoquinolin-4-yl)ethyl)-1-methylurea], for which the concentration for a half-maximal effect (EC50) under setting [5] worked out at 710 nM.
With `CC(c1cnc(NCc2cn[nH]n2)c2ccccc12)N(C)C(=O)Nc1ccc(F)c(Cl)c1` (single isomer, unassigned) [Compound 261, 1-(1-(1-(((2H-1,2,3-Triazol-4-yl)methyl)amino)isoquinolin-4-yl)ethyl)-3-(3-chloro-4-fluorophenyl)-1-methylurea], the half-maximal effective concentration (EC50) under setting [4] was 6100 nM.
Consider `CC(c1cn(Cc2c[nH]nn2)c(=O)c2ccccc12)N(C)C(=O)Nc1ccc(F)c(Cl)c1` (single isomer, unassigned) [Compound 276, 1-(1-(2-((1H-1,2,3-Triazol-4-yl)methyl)-1-oxo-1,2-dihydroisoquinolin-4-yl)ethyl)-3-(3-chloro-4-fluorophenyl)-1-methylurea], for which the 50% effective concentration (EC50) under setting [4] is 2700 nM.
As for `CCCCN(C(=O)Nc1ccc(F)c(Cl)c1)C(C)c1cnc(OC)c2ccccc12` (single isomer, unassigned) [Compound 61, 1-Butyl-3-(3-chloro-4-fluorophenyl)-1-(1-(1-methoxyisoquinolin-4-yl)ethyl)urea], the EC50 under setting [4] was determined as 80 nM.
Still for that read-out and setting: the result for `CCN(C(=O)Nc1ccc(F)c(Cl)c1)C(c1cnc(OC)c2ccccc12)C1CC1` (single isomer, unassigned) [Compound 58, 3-(3-Chloro-4-fluorophenyl)-1-(cyclopropyl(1-methoxyisoquinolin-4-yl)methyl)-1-ethylurea] reads 3500 nM.
In the case of `CC(c1c[nH]c(=O)c2cc(F)c(F)cc12)N(CCS(N)(=O)=O)C(=O)Nc1ccc(F)cc1` (single isomer, unassigned) [Compound 387, 2-(1-(1-(6,7-Difluoro-1-oxo-1,2-dihydroisoquinolin-4-yl)ethyl)-3-(4-fluorophenyl)ureido)ethane-1-sulfonamide], the EC50 under setting [5] is 40 nM.
As to `CC(C)CN(C(=O)Nc1ccc(F)cc1)C(C)c1c[nH]c(=O)c2cc(F)c(F)cc12` (single isomer, unassigned) [Compound 287, 1-(1-(6,7-Difluoro-1-oxo-1,2-dihydroisoquinolin-4-yl)ethyl)-3-(4-fluorophenyl)-1-isobutylurea], under setting [5], the EC50 was 1500 nM.
On to `CC(c1c[nH]c(=O)c2c(F)c(F)ccc12)N(C)C(=O)Nc1ccc(F)c(F)c1` (single isomer, unassigned) [Compound 435, 1-(1-(7,8-Difluoro-1-oxo-1,2-dihydroisoquinolin-4-yl)ethyl)-3-(3,4-difluorophenyl)-1-methylurea], for which the EC50 under setting [5] amounted to 240 nM.
On to `CCn1cc(C(C)N(C)C(=O)Nc2ccc(F)c(Cl)c2)c2ccccc2c1=O` (single isomer, unassigned) [Compound 184, 3-(3-Chloro-4-fluorophenyl)-1-(1-(2-ethyl-1-oxo-1,2-dihydroisoquinolin-4-yl)ethyl)-1-methylurea], for which the EC50 under setting [4] is 90 nM.
`CC(c1c[nH]c(=O)c2c(F)c(F)ccc12)N(C)C(=O)NCc1ccc(F)c(F)c1` (single isomer, unassigned) [Compound 490, 1-(1-(7,8-Difluoro-1-oxo-1,2-dihydroisoquinolin-4-yl)ethyl)-3-(3,4-difluorobenzyl)-1-methylurea]: under setting [5], the half-maximal effective concentration (EC50) worked out at 780 nM.
Consider `CCN(C(=O)Nc1ccc(F)c(Cl)c1)C(c1c[nH]c(=O)c2ccccc12)C(C)C` (single isomer, unassigned) [Compound 55, 3-(3-Chloro-4-fluorophenyl)-1-ethyl-1-(2-methyl-1-(1-oxo-1,2-dihydroisoquinolin-4-yl)propyl)urea], for which the 50% effective concentration (EC50) under setting [3] came to 11000 nM.
With `CCN(C(=O)Nc1ccc(F)c(Cl)c1)C(C)c1c[nH]c(=O)c2cnccc12` (single isomer, unassigned) [Compound 151, 3-(3-Chloro-4-fluorophenyl)-1-ethyl-1-(1-(1-oxo-1,2-dihydro-2,7-naphthyridin-4-yl)ethyl)urea], under setting [4], the concentration giving a half-maximal response (EC50) worked out at 2000 nM.
